Biological target: T1, hCRTH2 (Homo sapiens, UniProt Q9Y5Y4)
T1 sequence (Q9Y5Y4 1-395): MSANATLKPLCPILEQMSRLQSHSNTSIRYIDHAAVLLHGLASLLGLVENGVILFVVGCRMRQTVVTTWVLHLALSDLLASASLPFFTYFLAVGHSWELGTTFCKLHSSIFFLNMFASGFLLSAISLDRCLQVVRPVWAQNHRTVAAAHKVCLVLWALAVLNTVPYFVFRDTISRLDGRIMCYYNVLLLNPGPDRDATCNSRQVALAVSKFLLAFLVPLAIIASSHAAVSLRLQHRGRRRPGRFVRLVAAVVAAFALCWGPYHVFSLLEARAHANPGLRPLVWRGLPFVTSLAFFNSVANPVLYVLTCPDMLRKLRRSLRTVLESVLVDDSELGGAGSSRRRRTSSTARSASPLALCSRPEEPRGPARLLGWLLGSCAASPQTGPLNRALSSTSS
Experiment: biochemical
Conditions: Ki, Radioligand Binding Assay A; 3.0 nM [3H]PGD2, HEK-hCRTH2 membranes
Method: Competing ligands were diluted in dimethylsulfoxide (Me2SO) that was kept constant at 1% (v/v) of the final incubation volume. The reaction was initiated by the addition of 8-20 g of membrane protein prepared from a human embryonic kidney (HEK)-hCRTH2 cell line. Total and non-specific binding were determined in the absence and the presence of 10 μM PGD2, respectively. Under these conditions, specific binding (total minus non-specific) of the radioligand to the receptor reached equilibrium within 50 min and was stable up to 180 min. The reaction was routinely conducted for 60 min at room temperature and terminated by rapid filtration through prewetted (0.3% polyethyleneimine) 96-well printed Filtermate™ (Wallac) using a Tomtec® harvester (Hamden, Conn.). After washing with cold buffer, the filter was dried for 2 minutes in microwave, and Meltilex Scintillator sheet (Wallac) was melted on for 2 min.

`O=C(O)CCC(=O)N(C1CC1)[C@H]1c2cc(F)ccc2N(C(=O)c2ccc(OC(F)(F)F)cc2)[C@H]2CCC[C@H]21` [compound 17, 4-(cyclopropyl((3aS,9R,9aR)-7-fluoro-4-(4-(trifluoromethoxy)benzoyl)-2,3,3a,4,9,9a-hexahydro-1H-cyclopenta[b]quinolin-9-yl)amino)-4-oxobutanoic acid] was tested, and the Ki was 5.1 nM.
